Assay results published in patent publication US20030032813A1, “Rhodanine carboxylic acid derivatives for the treatment and prevention of metabolic bone disorders” (Angelika Esswein, Wolfgang Schaefer, and Konrad Honold, priority 1998, published 2003).

How the values were obtained:
adenylate cyclase = experiment: assay for the capability of stimulating cyclic adenylate cyclase (cAMP formation); type: biochemical
Text: Compounds of general formula (I) were investigated in a suitable assay for the capability of stimulating cyclic adenylate cyclase.

SMILES	melting point	% cAMP (Test conc. 50 μM) (adenylate cyclase)
O=C(O)CC(C(=O)O)N1C(=O)C(=Cc2cc3ccccc3s2)SC1=S (stereo not drawn)	240 °C (dec.)	–
O=C(O)CN1C(=O)C(=Cc2cc3ccccc3s2)SC1=S	292 to 294 °C	–
O=C(O)CN1C(=O)C(=Cc2ccc(O)cc2)SC1=S	230 to 232 °C	–
COc1cc(C)c(C=C2SC(=S)N(CC(=O)O)C2=O)cc1C	240 °C	–
COc1ccc(C=C2SC(=S)N(CC(=O)O)C2=O)cc1C	235 to 236 °C	–
CC(C)(C)c1cc(C=C2SC(=S)N(C(CCC(=O)O)C(=O)O)C2=O)cc(C(C)(C)C)c1O (stereo not drawn)	130 °C (dec.)	–
O=C(O)CCC(C(=O)O)N1C(=O)C(=Cc2cc3ccccc3s2)SC1=S (stereo not drawn)	220 to 221 °C	–
O=C(O)CN1C(=O)C(=Cc2ccc(OCc3ccccc3)c(OCc3ccccc3)c2)SC1=S	187 to 188 °C	–
CC(C)(C)c1cc(C=C2SC(=S)N(C(CC(=O)O)C(=O)O)C2=O)cc(C(C)(C)C)c1O (stereo not drawn)	240 °C (dec.)	–
O=C(O)CN1C(=O)C(=Cc2ccc(OCc3ccccc3)cc2)SC1=S	205 to 206 °C	–
CC(=C1SC(=S)N(CC(=O)O)C1=O)c1cc(O)cc(O)c1	184 to 188 °C	–
O=C(O)COc1ccc(CC=C2SC(=S)N(CC(=O)O)C2=O)cc1	111 to 120 °C (dec.)	–
O=C(O)CN1C(=O)C(=Cc2ccc(O)c(O)c2O)SC1=S	263 °C (dec.)	–
COc1cc(O)c(C=C2SC(=S)N(CC(=O)O)C2=O)c(OC)c1	194 °C (dec.)	–
O=C(O)CCN1C(=O)C(=Cc2ccc(OCc3ccccc3)cc2)SC1=S	188 to 191 °C	–
CC(C(=O)O)N1C(=O)C(=Cc2ccc(OCc3ccccc3)cc2)SC1=S (stereo not drawn)	125 to 128 °C	–
O=C(O)CN1C(=O)C(=Cc2cc(OCc3ccccc3)ccc2O)SC1=S	130 to 133 °C	–
COc1ccc(COc2ccc(C=C3SC(=S)N(CC(=O)O)C3=O)cc2)cc1	172 to 173 °C	–
O=C(O)CN1C(=O)C(=Cc2ccc(OCc3ccc4c(c3)OCO4)cc2)SC1=S	206 to 207 °C	–
O=C(O)CCCCCN1C(=O)C(=Cc2cc(O)c(O)c(O)c2)SC1=S	212 to 214 °C	–
COc1cccc(COc2ccc(C=C3SC(=S)N(CC(=O)O)C3=O)cc2)c1	191 to 193 °C	–

SMILES	melting point	% cAMP (Test conc. 50 μM) (adenylate cyclase)
Cc1cc(C=C2SC(=S)N(CC(=O)O)C2=O)cc(C)c1O	277 to 279 °C	–
CC(C)(C)c1cc(C=C2SC(=S)N(C(Cc3c[nH]c4ccccc34)C(=O)O)C2=O)cc(C(C)(C)C)c1O (stereo not drawn)	140 °C (dec.)	–
O=C(O)CN1C(=O)C(=CC2=CC=C(OCc3ccccc3)C(O)(O)C2)SC1=S	178 to 180 °C	–
O=C(O)CN1C(=O)C(=Cc2cc(OCc3ccccc3)ccc2OCc2ccccc2)SC1=S	196 to 198 °C	–
CC(=O)Oc1cc(C=C2SC(=S)N(CC(=O)O)C2=O)cc(OC(C)=O)c1OC(C)=O	200 °C (dec.)	–
O=C(O)CN1C(=O)C(=CCCc2ccccc2)SC1=S	108 to 111 °C	–
CN1C(=O)C(=Cc2cc(C(C)(C)C)c(O)c(C(C)(C)C)c2)SC1=S	> 240 °C	–
COC(=O)CN1C(=O)C(=Cc2cc(C(C)(C)C)c(O)c(C(C)(C)C)c2)SC1=S	165 to 170 °C	–
CCN(CC)C(=O)CN1C(=O)C(=Cc2cc(C(C)(C)C)c(O)c(C(C)(C)C)c2)SC1=S	223 to 225 °C	–
CC(=O)Nc1ccc2sc(C=C3SC(=S)N(CC(=O)O)C3=O)cc2c1	> 240 °C	–
CCOc1cc2cc(C=CC=C3SC(=S)N(CC(=O)OC)C3=O)sc2cc1OCC	211 to 215 °C	–
O=C(O)CN1C(=O)C(=CC2CCN(C(=O)OCc3ccccc3)CC2)SC1=S	114 to 115 °C	–
CC(C=CC1=C(C)CCCC1(C)C)=CC=CC(C)=CC=C1SC(=S)N(CC(=O)O)C1=O	144 °C (dec.)	–
CC1C(C=C2SC(=S)N(CC(=O)O)C2=O)=CC=C(O)C1(C)O (stereo not drawn)	> 240 °C	–
CCOc1c(C)cc(C=C2SC(=S)N(CC(=O)O)C2=O)c(C)c1OCC	185 to 190 °C	–
CCOc1c(C)cc(C=CC=C2SC(=S)N(CC(=O)O)C2=O)c(C)c1OCC	210 °C (dec.)	–
CCC1=C(C=CC(C)=CC=CC=C2SC(=S)N(CC(=O)O)C2=O)C(CC)(CC)CCC1	192 to 195 °C	–
O=C(O)CCN1C(=O)C(=Cc2ccc3c(c2)OCO3)SC1=S	174 to 176 °C	–
O=C(O)CCN1C(=O)C(=Cc2cccc3ccccc23)SC1=S	159 to 161 °C	–
O=C(O)CCN1C(=O)C(=CC=Cc2cc3ccccc3s2)SC1=S	246 to 248 °C	–
CCCCN(CCCC)c1ccc(C=C2SC(=S)N(CC(=O)O)C2=O)cc1	186 to 188 °C	–

SMILES	melting point	% cAMP (Test conc. 50 μM) (adenylate cyclase)
CCCCCc1ccc(C=C2SC(=S)N(CC(=O)O)C2=O)cc1	160 to 162 °C	–
COc1cccc(C=C2SC(=S)N(CC(=O)O)C2=O)c1	193 to 196 °C	–
CCCCCCOc1ccccc1C=C1SC(=S)N(CC(=O)O)C1=O	148 to 150 °C	–
CC(C)(C)c1cc(C=CC=C2SC(=S)N(CC(=O)O)C2=O)cc(C(C)(C)C)c1O	> 240 °C	–
COc1cc(C=C2SC(=S)N(CC(=O)O)C2=O)cc(OC)c1O	238 to 240 °C	–
O=C(O)CN1C(=O)C(=Cc2ccc(O)c(C(=O)O)c2)SC1=S	> 260 °C	–
COc1cc(C)c2c(c1C=C1SC(=S)N(CC(=O)O)C1=O)Oc1c(c(C)c(O)c3c1C(O)OC3=O)OC2=O (stereo not drawn)	> 260 °C	–
Cc1[nH]c2ccccc2c1C=C1SC(=S)N(CC(=O)O)C1=O	268 to 270 °C	–
CC(=O)Oc1ccc(C=C2SC(=S)N(CC(=O)O)C2=O)cc1OC(C)=O	193 to 253 °C	–
O=C(O)CN1C(=O)C(=Cc2ccc3c(c2)CCO3)SC1=S	246 to 247 °C	–
CC(C)(C)c1cc(C=C2SC(=S)N(C(Cc3ccccc3)C(=O)O)C2=O)cc(C(C)(C)C)c1O (stereo not drawn) [Example 3, 2-[5-(3,5-Di-tert-butyl-4-hydroxy-benzylidene)-4-oxo-2-thioxo-thiazolidin-3-yl]-3-phenyl-propionic acid]	160 °C (dec.)	8%
O=C(O)CN1C(=O)C(=CC=CC=Cc2cc3ccccc3s2)SC1=S [Example 13, [5-(5-Benzo [b]thiophen-2-yl-penta-2,4-dienylidene)-4-oxo-2-thioxo-thiazolidin-3-yl]-acetic acid]	> 240 °C	10%
O=C(O)CN1C(=O)C(=CC=Cc2cc3ccccc3s2)SC1=S [Example 16, [5-(3-Benzo [b]thiophen-2-yl-allylidene)-4-oxo-2-thioxo-thiazoldin-3-yl]-acetic acid]	–	8%
CC(C=CC1=C(C)CCCC1(C)C)=C1SC(=S)N(CC(=O)O)C1=O [Example 22, 5-[1-Methyl-3-[2,6,6-trimethyl-cyclohex-1-enyl)-allylidene]-4-oxo-2-thioxo-thiazolidin-3-yl-acetic acid]	100 °C (dec.)	10%
CC(C)(C)c1cc(C=C2SC(=S)N(CC(=O)O)C2=O)ccc1O [Example 23, [5-(3-tert-Butyl-4-hydroxy-benzylidene)-4-oxo-2-thioxo-thiazolidin-3-yl]-acetic acid]	> 240 °C	8%
CC(C)(C)c1cc(C=C2SC(=S)N(CC(=O)O)C2=O)cc(C(C)(C)C)c1O [Example 25, [5-(3,5-Di-tert-butyl-4-hydroxy-benzylidene)-4-oxo-2-thioxo-thiazolidin-3-yl]-acetic acid]	120 to 121 °C	40%
CC(C=CC1=C(C)CCCC1(C)C)=CC=C1SC(=S)N(CC(=O)O)C1=O [Example 46, 5-(3-Methyl-5-(2,6,6trimethyl-cyclohex-1-enyl)-penta-2,4-dienyliden]-4-oxo-2-thioxo-thiazolidin-3-yl-acetic acid]	153 to 155 °C	30%
CC1=C(C=C2SC(=S)N(CCC(=O)O)C2=O)C(C)(C)CCC1 [Example 59, 3-(4-Oxo-2-thioxo-5-(2,6,6-trimetyl-cyclohex-1-enylmethylene)-thiazolidin-3-yl]-propionic acid]	–	15%
CC(C)(C)c1cc(C=C2SC(=S)N(CCC(=O)O)C2=O)cc(C(C)(C)C)c1O [Example 60, 3-[5-(3,5-Di-tert-butyl-4-hydroxy-benzylidene)-4-oxo-2-thioxo-thiazolidin-3-yl]-propionic acid]	218 to 219 °C	20%
CC(C=CC1=C(C)CCCC1(C)C)=C1SC(=S)N(CCC(=O)O)C1=O [Example 72, 3-5-[1-Methyl-3-(2,6,6-trimethyl-cyclohex-1-enyl)-allylidene]-4-oxo-2-thioxo-thiazolidin-3-yl-propionic acid]	–	15%
